Assay results reported in patent publication US11331328B2, “Compositions and methods for inhibiting antiapoptotic Bcl-2 proteins as anti-aging agents” (priority 2014, dated 2022).
Read-outs that look alike come from different tables or passages of the source. Peptide text beside a SMILES is read from it. * marks the point of attachment. Cbz = O=C(OCc1ccccc1)*

How the values were obtained:
[1] = system: non-senescent WI-38 cells (NC); assay: Cell viability (PI flow cytometry), LD50 in non-senescent WI-38 cells; format: cell-based, human
Description: (§1) Mouse embryonic fibroblasts (MEF) were isolated from mouse embryos as described^1. All cells were cultured in a complete medium (CM) (Dulbecco's Modified Eagle Medium supplemented with 10% fetal bovine serum [FBS], 100 U/ml penicillin, and 100 μg/ml streptomycin [all from Atlanta Biologicals, Norcross, Ga., and USA]) in a humidified incubator at 37° C. and 5% CO2. Low passages of WI-38 cells (<25), IMR-90 (<25), REC cells (<25) and MEF (<3) were used as non-senescent controls or for induction of senescence to avoid replicative senescence. […] To induce senescence by expression of oncogenic Ras (Ras^V12), WI-38 cells were infected with the retroviruses pBabe-H-Ras or pBabe-puro (control) (Addgene, Cambridge, Mass., UAS)^2, 3. […] Senescent cells were maintained in culture for a few days, changing the culture medium every 3 days until use. For in vitro cell culture experiments, we usually repeated the experiments for at least three times to ensure the reproducibility of the data. In addition, the repeats of the experiments for three times will allow us to obtain 3 independent observations for statistical analysis.
(§2) Flow cytometry: Non-senescent and senescent cells were seeded into wells of 24- or 48-well at about 70% of confluence. […] Both quiescent non-senescent cells and permanently growth arrested senescent cells were treated with vehicle (0.1% DMSO or PBS) or increasing concentrations of the compounds listed in Table 1 for various durations. […] After incubated with propidium iodide (PI 100 ng/ml) in PBS at room temperature for 1 min, cells were centrifuged at 1200 rpm for 6 min and then resuspended in PBS with 2% of FBS for analysis by a BD LSR II flow cytometer (BD Biosciences, San Jose, Calif., USA). Viable cells (PI^− cells) were numerated by flow cytometry at a constant flow rate and calculated as a percentage of control cells treated with vehicle using the formula: percentage of control=(Ndrug/NC)×100, where Ndrug and NC represent the absolute number of PI^− viable cells of drug-treated and vehicle-treated cells, respectively.
(§3) MTT (3-[4,5-dimethylthiazol-2-yl]-2,5 diphenyl tetrazolium bromide) assay: Cells were harvested, washed and resuspended in CM and added to wells of 24- or 48-well plates as described above. […] After 4 h at 37° C., the formazan was solubilized by lysing the cells with 300 μl of DMSO. Absorbance of formazan was measured at 595 nm using a Microplate Reader (BioTek, Winooski, Vt., USA). Cell viability was calculated in the method as previously described^4.
(§4) Trypan blue exclusion assay: Cells were harvested, washed and resuspended in CM and added to wells of a 6-well plate as described above. […] Living cells stained negative for trypan blue and were counted under light microscopy.
(§5) Briefly, Probit (set as y) was determined by looking up their correspondence to the % responded in Finney's table. The log of the compound concentrations was used as x. By fitting a line of regression, we produce the formula y=ax+b.

[2] = system: IR-induced senescent WI-38 cells (SC); assay: Cell viability (PI flow cytometry), LD50 in IR-induced senescent WI-38 cells; format: cell-based, human; details: for LD50 Ratio (NC/SC): non-senescent vs IR-induced senescent WI-38 cells
Description: as §1, §2, §3, §4, §5

[3] = WI-38 fibroblasts, non-senescent, LD50 by Probit Analysis, read-out: LD50 (μM) for non-senescent cells (NC)
[4] = WI-38 fibroblasts, IR-induced senescent, LD50 by Probit Analysis, read-out: LD50 (μM) for senescent cells (SC)
[5] = Homo sapiens, WI-38 fibroblasts, non-senescent, LD50 by Probit Analysis, read-out: LD50 (μM) for non-senescent cells (NC)
[6] = Homo sapiens, WI-38 fibroblasts, IR-induced senescent, LD50 by Probit Analysis, read-out: LD50 (μM) for senescent cells (SC)
[7] = Homo sapiens, WI-38, read-out: LD50 (μM) for non-senescent cells (NC)
[8] = Homo sapiens, WI-38, read-out: LD50 (μM) for senescent cells (SC)

Molecule	CC50 [1, 3] [µM]	IC50 [2, 4] [µM]	LD50 Ratio (NC/SC) [2]	CC50 [1, 5] [µM]	IC50 [2, 6] [µM]	CC50 [1, 7] [µM]	IC50 [2, 8] [µM]	selective killing of SCs (viable WI-38 cells, NC vs IR-SC) ([2]; 5 μM ABT199, 0.5 μM WEHI539, or both, 72 h)
CC(C)C[C@H](NC(=O)[C@H](Cc1ccccc1)NC(=O)c1cnccn1)B(O)O [Bortzomib]	0.016	0.024	0.7	–	–	–	–	–
O=C(CCCCCCC(=O)Nc1ccccc1)NO [Vorinostat(SAHA), Vorinostat]	–	–	0.38	0.85	2.21	–	–	–
CC1=CC(=O)c2c(O)cccc2C1=O [Plumbagin]	–	–	1.5	12.6	8.7	–	–	–
CCCCS(=N)(=O)CCC(N)C(=O)O (stereo not shown) [Buthionine sulfoximine]	–	–	1.0	2340	2390	–	–	–
COc1c(O)cc(O)c2c(=O)cc(-c3ccccc3)oc12 [Wogonin]	–	–	1.0	–	–	> 200	> 200	–
C=CCNc1c(O)cc2c(O)c1C[C@@H](C)C[C@H](OC)[C@H](O)[C@@H](C)/C=C(\C)[C@H](OC(N)=O)[C@@H](OC)/C=C\C=C(/C)C(=O)N2 [IPI-504]	–	–	0.2	–	–	0.14	0.93	–
CC1(C)CCC(CN2CCN(c3ccc(C(=O)NS(=O)(=O)c4ccc(NCC5CCOCC5)c([N+](=O)[O-])c4)c(Oc4cnc5[nH]ccc5c4)c3)CC2)=C(c2ccc(Cl)cc2)C1 [ABT199]	–	–	–	> 10	> 10	–	–	did not selectively kill SCs
COc1ccc(C2=N[C@@H](c3ccc(Cl)cc3)[C@@H](c3ccc(Cl)cc3)N2C(=O)N2CCNC(=O)C2)c(OC(C)C)c1 [Nutlin3]	5.62	82.16	0.1	–	–	–	–	–
CC(C)(C)c1ccc(C(O)CCCN2CCC(C(O)(c3ccccc3)c3ccccc3)CC2)cc1 (stereo not shown) [Terfenadine]	–	–	0.9	6.13	6.87	–	–	–
OO [Hydrogen peroxide]	–	–	0.58	135	231	–	–	–
CNCCCN1c2ccccc2CCc2ccccc21 [Despramine]	50.03	51.13	1.0	–	–	–	–	–
O=c1cc(-c2cccc3c2Sc2ccccc2S3)oc(N2CCOCC2)c1 [KU55933]	–	–	0.2	5.1	30.7	–	–	–
CCCCCCCCCCCCC/C=C/[C@@H](O)[C@@H](N)CO[C@@H]1O[C@H](CO)[C@H](O)[C@H](O)[C@H]1O [Psychosine]	46.32	52.25	0.9	–	–	–	–	–
Cc1csc(=NC2CCCCC2)n1/N=C/c1ccc(O)c(O)c1O [MIM1]	>50.00	>50.00	1.0	–	–	–	–	–
Arsenic trioxide	15.65	18.26	0.9	–	–	–	–	–
S=C=NCCc1ccccc1 [Phenethyl isothiocyanate (PEITC), Phenethyl isothiocyanate]	–	–	<1.0	< 10	> 10	–	–	–

Molecule	CC50 [1, 3] [µM]	IC50 [2, 4] [µM]	LD50 Ratio (NC/SC) [2]	CC50 [1, 5] [µM]	IC50 [2, 6] [µM]	CC50 [1, 7] [µM]	IC50 [2, 8] [µM]	selective killing of SCs (viable WI-38 cells, NC vs IR-SC) ([2]; 5 μM ABT199, 0.5 μM WEHI539, or both, 72 h)
Oc1ccc(-c2nc(-c3ccncc3)c(-c3ccc(F)cc3)[nH]2)cc1 [SB202190]	–	–	–	> 800	> 800	–	–	–
O=C(O)C(=O)CBr [3-bromopyruvate]	280.00	370.00	0.8	–	–	–	–	–
O=C(O)CCCCC(CCSCc1ccccc1)SCc1ccccc1 (stereo not shown) [CPI-613]	–	–	1.1	223	205	–	–	–
C[C@]12CC[C@H](O)CC1=CC[C@@H]1[C@@H]2CC[C@]2(C)C(=O)CC[C@@H]12 [Dehydroepiandrosterone]	–	–	0.6	296	510	–	–	–
Cc1ccc2nc(NCCN)c3ncc(C)n3c2c1 [BMS345541]	–	–	0.6	6.87	10.8	–	–	–
COCCn1c2c([n+](Cc3cnccn3)c1C)C(=O)c1ccccc1C2=O [YM-155]	–	–	1.6	78.4	50	–	–	–
CC(/C=C/C(=O)NO)=C\[C@@H](C)C(=O)c1ccc(N(C)C)cc1 [Trichostatin A(TSA), Trichostatin A]	0.72	0.39	1.87	–	–	–	–	–
O=CC[C@@H](O)[C@H](O)[C@H](O)CO [2-Deoxy-D-glucose]	–	–	0.5	4800	8890	–	–	–
CC(=O)OC[C@H]1O[C@@H]([S-])[C@H](OC(C)=O)[C@@H](OC(C)=O)[C@@H]1OC(C)=O.CCP(CC)CC.[Au+] [Auranofin]	5.13	5.34	1.0	–	–	–	–	–
CO[C@H]1C[C@@H]2CC[C@@H](C)[C@@](O)(O2)C(=O)C(=O)N2CCCC[C@H]2C(=O)O[C@H]([C@H](C)C[C@@H]2CC[C@@H](O)[C@H](OC)C2)CC(=O)[C@H](C)/C=C(\C)[C@@H](O)[C@@H](OC)C(=O)[C@H](C)C[C@H](C)/C=C/C=C/C=C/1C [Rapamycin]	–	–	1.0	–	–	> 0.04	> 0.04	–
Balifomycin A1	29.71	22.11	1.3	–	–	–	–	–
O=c1cc(N2CCOCC2)oc2c1ccc1ccccc12 [NU7026]	47.02	64.03	0.7	–	–	–	–	–
CC(C)C[C@@H](C=O)NC(=O)[C@H](CC(C)C)NC(=O)[C@H](CC(C)C)NC(=O)OCc1ccccc1 [MG132] (Cbz-Leu-Leu-Leu-aldehyde)	–	–	0.1	–	–	0.24	1.92	–
NCCCNCCCCNCCCN [Spermine]	–	–	–	> 40	> 40	–	–	–
CCCCCCCCCC[P+](c1ccccc1)(c1ccccc1)c1ccccc1 [Decyl-triphenylphosphonium]	–	–	1.4	–	–	1.41	0.98	–
CS[C@H]1SC[C@H]2C(=O)N(C)[C@@H](C(C)C)C(=O)OC[C@@H](NC(=O)c3cnc4ccccc4n3)C(=O)N[C@@H](C)C(=O)N(C)[C@@H]1C(=O)N(C)[C@@H](C(C)C)C(=O)OC[C@@H](NC(=O)c1cnc3ccccc3n1)C(=O)N[C@@H](C)C(=O)N2C [Echinomycin]	–	–	0.2	–	–	0.42	2.86	–
